Patent US20050143328A1, “COMPOSITION AND TREATMENT FOR ENVELOPE VIRUS INFECTIONS” (priority 2003, published 2005)

System: herpes simplex I
Assay: Topical treatment of herpes simplex I / cold sores with a neomycin B composition
Type: in vivo
Settings: between 3.5 and 5 mg/g neomycin B combined with pramoxine hydrochloride in petroleum jelly
Source text: Example 2: This embodiment of the invention is a compound similar to that disclosed in Example 1, except that it is specifically targeted to the treatment of herpes simplex I and the prevention of physiological manifestations of herpes simplex I (e.g., cold sores). […] However, for longer-term use or storage, preservatives like methylparaben are utilized to avoid contamination, and the ingredients preferably comprise an emulsion or suspension to distribute evenly the physiologically active ingredients.

Compound: NC[C@@H]1O[C@H](O[C@H]2[C@@H](O)[C@H](O[C@@H]3[C@@H](O)[C@H](N)C[C@H](N)[C@H]3O[C@H]3O[C@H](CN)[C@@H](O)[C@H](O)[C@H]3N)O[C@@H]2CO)[C@H](N)[C@@H](O)[C@@H]1O [neomycin B]
- outcome of the experiment (treatment of herpes simplex I and prevention of its manifestations, e.g. cold sores): ultimately effective
